Laboratory results taken from ChEMBL document CHEMBL1122859, “Novel vasopressin analogues that help define a minimum effective antagonist pharmacophore” (J Med Chem, 1985).
Numbered stars: 1 amine (or outer) side, 2 acyl side, 3 side chain; on linkers, the order of the positions; unused ones are H or OH. Bridge positions count the residues as written; N and C are the ends. Square brackets hold non-standard residues; d marks the D form. Peptide text beside a SMILES is read from it. * marks the point of attachment. X1 = O=C(CC1(S[*:2])CCCCC1)[*:1]; NH(CH2)5NH2 = NCCCCCN*

Columns and labels:
Vasopressin V2 receptor [1] = target: T1, Vasopressin V2 receptor (Sus scrofa, UniProt P32307); assay: Tested for inhibition of vasopressin-stimulated adenylate cyclase of medullary membranes of pig kidney.
T1 sequence (P32307 whole entry): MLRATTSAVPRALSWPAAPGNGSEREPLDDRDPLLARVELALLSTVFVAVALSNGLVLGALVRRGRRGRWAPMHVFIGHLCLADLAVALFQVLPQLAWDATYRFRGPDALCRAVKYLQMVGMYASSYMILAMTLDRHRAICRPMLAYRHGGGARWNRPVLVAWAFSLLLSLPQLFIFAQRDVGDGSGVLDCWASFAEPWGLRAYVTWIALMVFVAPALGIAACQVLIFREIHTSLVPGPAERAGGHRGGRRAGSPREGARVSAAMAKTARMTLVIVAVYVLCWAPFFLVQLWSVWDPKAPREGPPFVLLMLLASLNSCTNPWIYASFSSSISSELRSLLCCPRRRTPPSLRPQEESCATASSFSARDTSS

Vasopressin V2 receptor [2] = target: T1, Vasopressin V2 receptor; assay: Tested for inhibition of [3H]LVP binding to vasopressin receptor in medullary membranes of pig kidney.; format: cell membranes
Rattus norvegicus = assay: Dose required to lower urine osmolality to 300 mOsm/kg in rat.; format: functional

| Ki (Vasopressin V2 receptor [1]) [nM] | Ki (Vasopressin V2 receptor [2]) [nM] | Structure (SMILES) | ED300 (Rattus norvegicus) [mg/kg] |
| --- | --- | --- | --- |
| 9.4 | 37 | CCOc1ccc(C[C@H]2NC(=O)CC3(CCCCC3)SSC[C@@H](C(=O)N3CCC[C@H]3C(=O)N[C@@H](CCCCN)C(N)=O)NC(=O)[C@H](CC(N)=O)NC(=O)[C@H](C(C)C)NC(=O)[C@H](Cc3ccccc3)NC2=O)cc1 [listing 1 of 2 here] | – |
| – | – | CCOc1ccc(C[C@H]2NC(=O)CC3(CCCCC3)SSC[C@@H](C(=O)N3CCC[C@H]3C(=O)N[C@@H](CCCCN)C(N)=O)NC(=O)[C@H](CC(N)=O)NC(=O)[C@H](C(C)C)NC(=O)[C@H](Cc3ccccc3)NC2=O)cc1 [listing 2 of 2 here] | 0.022 |
| 6.8 | 19 | CCOc1ccc(C[C@H]2NC(=O)CC3(CCCCC3)SSC[C@@H](C(=O)NCCCCCN)NC(=O)[C@H](CC(N)=O)NC(=O)[C@H](C(C)C)NC(=O)[C@H](Cc3ccccc3)NC2=O)cc1 [listing 1 of 2 here] | – |
| – | – | CCOc1ccc(C[C@H]2NC(=O)CC3(CCCCC3)SSC[C@@H](C(=O)NCCCCCN)NC(=O)[C@H](CC(N)=O)NC(=O)[C@H](C(C)C)NC(=O)[C@H](Cc3ccccc3)NC2=O)cc1 [listing 2 of 2 here] | 0.094 |
| 5.8 | 26 | CCOc1ccc(C[C@H]2NC(=O)CC3(CCCCC3)SSC[C@@H](C(=O)N[C@@H](CCCCN)C(N)=O)NC(=O)[C@H](CC(N)=O)NC(=O)[C@H](C(C)C)NC(=O)[C@H](Cc3ccccc3)NC2=O)cc1 [listing 1 of 2 here] | – |
| – | – | CCOc1ccc(C[C@H]2NC(=O)CC3(CCCCC3)SSC[C@@H](C(=O)N[C@@H](CCCCN)C(N)=O)NC(=O)[C@H](CC(N)=O)NC(=O)[C@H](C(C)C)NC(=O)[C@H](Cc3ccccc3)NC2=O)cc1 [listing 2 of 2 here] | 0.059 |
| 7.2 | 30 | CCOc1ccc(C[C@H]2NC(=O)CC3(CCCCC3)SSC[C@@H](C(=O)N3CCC[C@H]3C(=O)NCCCCCN)NC(=O)[C@H](CC(N)=O)NC(=O)[C@H](C(C)C)NC(=O)[C@H](Cc3ccccc3)NC2=O)cc1 ([dY](Et)FVNCP-{NH(CH2)5NH2}; linker N-5 via X1) [listing 1 of 2 here] | – |
| – | – | CCOc1ccc(C[C@H]2NC(=O)CC3(CCCCC3)SSC[C@@H](C(=O)N3CCC[C@H]3C(=O)NCCCCCN)NC(=O)[C@H](CC(N)=O)NC(=O)[C@H](C(C)C)NC(=O)[C@H](Cc3ccccc3)NC2=O)cc1 ([dY](Et)FVNCP-{NH(CH2)5NH2}; linker N-5 via X1) [listing 2 of 2 here] | 0.027 |
| – | – | CCOc1ccc(C[C@H]2NC(=O)CC3(CCCCC3)SSC[C@@H](C(=O)N3CCC[C@H]3C(=O)N[C@@H](CCCNC(=N)N)C(N)=O)NC(=O)[C@H](CC(N)=O)NC(=O)[C@H](C(C)C)NC(=O)[C@H](Cc3ccccc3)NC2=O)cc1 ([dY](Et)FVNCPR-NH2; linker N-5 via X1) | 0.0092 |
| – | – | CCOc1ccc(C[C@H]2NC(=O)CC3(CCCCC3)SSC[C@@H](C(=O)N3CCC[C@H]3C(=O)N[C@@H](CCCN=C(N)N)C(=O)NCC(N)=O)NC(=O)[C@H](CC(N)=O)NC(=O)[C@H](C(C)C)NC(=O)[C@H](Cc3ccccc3)NC2=O)cc1 ([dY](Et)FVNCPRG-NH2; linker N-5 via X1) | 0.0112 |
